Measured values reported in patent US9271962B2 (NORTHEASTERN UNIVERSITY, priority 2008, dated 2016).

Legend:
hMGL = target: T1, hMGL (Homo sapiens, UniProt Q99685); assay: Fluorescent enzyme assay, MGL (AHMMCE hydrolysis); format: biochemical; settings: AHMMCE substrate, screening assay; for inhibition at 0.01 µM: 10 nM inhibitor, read-out: % Inhibition of Enzyme by inhibitor, MGL, 10 nM; for inhibition at 1 µM: 1000 nM inhibitor
T1 construct: A full-length cDNA clone of the human MGL transcript variant 1; made in house; host or cells: E. coli BL21 (DE3)
T1 sequence (Q99685 2-303 limits assumed): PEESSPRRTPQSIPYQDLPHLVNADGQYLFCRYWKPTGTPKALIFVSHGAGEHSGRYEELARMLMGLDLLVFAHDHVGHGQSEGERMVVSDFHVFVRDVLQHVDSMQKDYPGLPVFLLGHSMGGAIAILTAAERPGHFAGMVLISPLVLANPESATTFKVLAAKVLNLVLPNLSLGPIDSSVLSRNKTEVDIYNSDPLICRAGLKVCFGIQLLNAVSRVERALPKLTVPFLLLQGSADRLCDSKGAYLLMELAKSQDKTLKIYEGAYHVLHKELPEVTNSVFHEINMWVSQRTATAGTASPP
Experimental: (§1) Some analogs were tested for their FAAH/MGL inhibitory activity, which is expressed as % of inhibition (Tables 2, 3, and 4 below). The percentage of inhibition results from three-point assay (three concentrations of inhibitor are used) and it is less accurate (preliminary screening) than the IC50/Ki values that are determined from eight-point assay (eight different concentrations of inhibitor were used). The percentage of inhibition describes the percentage by which the inhibitor reduces the velocity/rate of AAMCA (arachidonoyl-7-amino-4-methylcoumarin amide) or AHMMCE (arachidonoyl-7-hydroxy-6-methoxy-4-methylcoumarin ester) hydrolysis by FAAH or MGL respectively. The IC50 is the concentration of the inhibitor, which results in 50% inhibition of the velocity/rate of AAMCA (arachidonoyl 7-amino-4-methylcoumarin amide) hydrolysis by FAAH or AHMMCE (Arachidonoyl, 7-hydroxy-6-methoxy-4-methylcoumarin ester) hydrolysis by MGL. The Ki value is the affinity constant and describes the ability of the compounds to inhibit the function of FAAH or MGL. The lower the IC50/Ki values, the higher the affinity of the inhibitor for the enzyme and the higher its inhibitory activity. A detailed description of the methods used to test inhibitory activity of compounds is given below.
A full-length cDNA clone of the human MGL transcript variant 1 (gi: 51242951) was obtained from OriGene Technologies (Rockville, Md.). The coding part of the MGL sequence (except the translation initiation codon ATG) was amplified by a polymerase chain reaction (PCR) using forward […] and reverse […] primers containing PmlI and SacI restriction enzyme recognition sites, respectively. iProof high-fidelity DNA polymerase (Bio-Rad, Hercules, Calif.) was used in the PCR amplification with 33 cycles, each consisting of denaturation at 94° C. for 10 s, annealing at 55° C. for 33 s, and extension at 72° C. for 1 min. The PCR product and pET45b vector were digested with PmlI and SacI restriction enzymes, and the vector was dephosphorylated with CIP followed by in-gel purification using the MinElute Gel Extraction Kit (Qiagen Corp., Valencia, Calif.). The fragment was inserted into the vector directly downstream after the 6 histidine and valine codons, generating the construct pET45His6hMGL for expression of hMGL containing an N-terminal His6-tag. GC10 E. coli cells were used for DNA transformation and plasmid propagation. Mini- and midi-scale plasmid DNA preparations were performed using a GenElute Plasmid Miniprep Kit (Sigma) and PureYield Plasmid Midiprep System (Promega, Madison, Wis.), respectively. In-frame vector-fragment junctions and the coding sequence of the recombinant gene were confirmed by sequencing. The pET45His6hMGL construct was transformed into BL21 (DE3) and Origami (DE3) E. coli expression strains (Novagen, Madison, Wis.).
A single E. coli BL21 (DE3) colony containing the pET45His6hMGL plasmid was inoculated into 12 mL of Luria broth-ampicillin medium and grown overnight with shaking (250 rpm) at 37° C. The next morning, 10 mL of this culture was inoculated into 1 L of fresh Luria broth-ampicillin and allowed to grow until culture turbidity reached an (OD)600 of 0.6-0.8, at which time expression from the T7 promoter was induced by adding isopropyl-β-D-thio-galactopyranoside (1 mM). After 5 h induction, the cells were harvested by centrifugation at 5,000 g for 10 min at 4° C., washed with PBS, and held at −80° C. Five grams (wet-weight) of cells were resuspended in 50 mL lysis buffer (100 mM NaCl; 50 mM Tris, pH 8.0) supplemented with Triton X-100 (0.5%), lysozyme (0.2 mg/mL), and DNase I (25 μg/ml) and disrupted on ice by three, one-min sonication cycles, each consisting of 1-sec sonication bursts at 50 W power separated from each other by a 2-sec interval (Vibra-Cell 500 W, Sonics, Newtown, Conn.). The cell lysate was centrifuged at 10,000 g for 30 min at 4° C. […]

ΔTM rFAAH = target: T2, ΔTM rFAAH (Rattus norvegicus, UniProt P97612); assay: Fluorescent enzyme assay, FAAH (AAMCA hydrolysis); format: biochemical; settings: AAMCA substrate, screening assay; for inhibition at 0.01 µM: 10 nM inhibitor; for inhibition at 1 µM: 1000 nM inhibitor
T2 construct: 15 ug of ΔTM rFAAH (cell lysate obtained by recombinant procedure); made in house
T2 sequence (P97612 30-579 limits assumed): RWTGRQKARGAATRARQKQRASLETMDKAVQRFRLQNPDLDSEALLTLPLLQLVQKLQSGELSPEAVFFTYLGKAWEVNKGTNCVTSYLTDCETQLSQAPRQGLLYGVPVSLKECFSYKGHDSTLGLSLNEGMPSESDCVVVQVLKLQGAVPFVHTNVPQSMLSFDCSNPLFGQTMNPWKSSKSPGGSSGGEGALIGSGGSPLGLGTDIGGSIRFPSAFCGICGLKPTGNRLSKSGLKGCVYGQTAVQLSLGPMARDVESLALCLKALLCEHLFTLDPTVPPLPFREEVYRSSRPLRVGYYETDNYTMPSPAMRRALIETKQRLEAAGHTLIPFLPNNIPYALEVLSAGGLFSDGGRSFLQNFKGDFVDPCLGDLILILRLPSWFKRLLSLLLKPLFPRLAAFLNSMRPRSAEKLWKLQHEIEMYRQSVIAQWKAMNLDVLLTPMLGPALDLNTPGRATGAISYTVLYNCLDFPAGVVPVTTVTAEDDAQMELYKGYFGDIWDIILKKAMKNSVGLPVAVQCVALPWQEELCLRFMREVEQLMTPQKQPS
Experimental: as §1
The enzyme (FAAH and MGL) assays were performed in 96 well plates (Coster #3650) in a total volume of 200 uL. Fluorogenic substrate AAMCA (arachidonoyl 7-amino-4-methylcoumarin amide) for FAAH and AHMMCE (arachidonoyl 7-hydroxy-6-methoxy-4-methylcoumarin ester) for MGL were used using BioTek Synergy HT Microplate Reader. Compounds and substrates were dissolved in DMSO provide a 10 mM stock solution and kept as a stock solution at −20° C. until used for assay. Stock solutions were thawed and reconstituted in 50:50 DMSO/assay buffer to a final DMSO concentration per well below 8%. This ensures that the compounds and substrate are in solution during assay. […] Appropriate substrate was added to adjust the final concentration in each well to 20 uM for FAAH (2× Km) and 10 uM for MGL (1×KM). Fluorescence readings were performed at λex=360/λem=460 for 4 h using Kinetic assay protocol at every 20 min (the fluorescent product coumarin produced is quantitated by this procedure). The readings at 3 h for FAAH and 2 h for MGL (linear maximum hydrolysis kinetics of enzyme on substrate) were used to calculate percent inhibition based on controls. Compounds which had more than 50 percent inhibition at 10 uM were selected for dose response study to determine IC50 values. The dose response at 8 concentration points was performed as with the screening assay except that compounds were serially diluted to 8 concentration points which were chosen based on IC50 value, which were calculated from the screening assay results. Assays are run twice in triplicates and Graphpad Prism software is used to plot inhibition data to obtain IC50 values.

inhibition at 0.01 µM (hMGL) | inhibition at 0.01 µM (ΔTM rFAAH) | inhibition at 1 µM (hMGL) | inhibition at 1 µM (ΔTM rFAAH) | SMILES
97% | 92% | – | – | CN(C)C(=O)n1nnc(Cc2ccc(I)cc2)n1 [Compound 18a, 5-(4-iodobenzyl)-N,N-dimethyl-2H-tetrazole-2-carboxamide]
64% | 86% | – | – | CN(C)C(=O)n1nnnc1Cc1ccc(I)cc1 [Compound 18b]
99% | 92% | – | – | CN(C)C(=O)n1nnc(Cc2ccc(OC(F)(F)F)cc2)n1 [Compound 19a]
76% | 91% | – | – | CN(C)C(=O)n1nnnc1Cc1ccc(OC(F)(F)F)cc1 [Compound 19b]
98% | 93% | – | – | CN(C)C(=O)n1nnc(Cc2ccc(C(F)(F)F)cc2)n1 [Compound 20a, N,N-dimethyl-5-[4-(trifluoromethyl)benzyl]-2H-tetrazole-2-carboxamide]
6% | 90% | – | – | CN(C)C(=O)n1nnnc1Cc1ccc(C(F)(F)F)cc1 [Compound 20b]
97% | 93% | – | – | CN(C)C(=O)n1nnc(Cc2ccc(Cl)cc2)n1 [Compound 21a]
54% | 93% | – | – | CN(C)C(=O)n1nnnc1Cc1ccc(Cl)cc1 [Compound 21b]
97% | 92% | – | – | CN(C)C(=O)n1nnc(Cc2ccc([N+](=O)[O-])cc2)n1 [Compound 22a, N,N-dimethyl-5-(4-nitrobenzyl)-2H-tetrazole-2-carboxamide]
22% | 85% | – | – | CN(C)C(=O)n1nnnc1Cc1ccc([N+](=O)[O-])cc1 [Compound 22b]
98% | 91% | – | – | CSc1ccc(Cc2nnn(C(=O)N(C)C)n2)cc1 [Compound 23a]
60% | 89% | – | – | CSc1ccc(Cc2nnnn2C(=O)N(C)C)cc1 [Compound 23b]
21% | 47% | – | – | COc1ccc(Cc2nnn(C(=O)N(C)C)n2)cc1 [Compound 24a, 5-(4-methoxybenzyl)-N,N-dimethyl-2H-tetrazole-2-carboxamide]
– | – | 96% | 100% | COc1ccc(Cc2nnnn2C(=O)N(C)C)cc1 [Compound 24b]
– | – | 99% | 100% | CC(=O)Nc1ccc(Cc2nnn(C(=O)N(C)C)n2)cc1 [Compound 25a]
– | – | 90% | 88% | CC(=O)Nc1ccc(Cc2nnnn2C(=O)N(C)C)cc1 [Compound 25b]
96% | 93% | – | – | Cc1ccc(Cc2nnn(C(=O)N(C)C)n2)cc1 [Compound 26a, N,N-dimethyl-5-(4-methylbenzyl)-2H-tetrazole-2-carboxamide]

Further lines, the compound ahead of its results:

SMILES | inhibition at 0.01 µM (hMGL) | inhibition at 0.01 µM (ΔTM rFAAH) | inhibition at 1 µM (hMGL) | inhibition at 1 µM (ΔTM rFAAH)
CN(C)C(=O)n1nnnc1Cc1ccc(Cl)cc1Cl [Compound 17b] | 97% | 86% | – | –
Cc1ccc(Cc2nnnn2C(=O)N(C)C)cc1 [Compound 26b] | 23% | 85% | – | –
CN(C)C(=O)n1nnc2ccccc21 [Compound 28, N,N-dimethyl-1H-benzo[d][1,2,3]-triazole-1-carboxamide] | 30% | 67% | – | –
CN(C)C(=O)n1cnnc1 [Compound 29, N,N-dimethyl-4H-1,2,4-triazole-4-carboxamide] | – | – | 79% | 92%
CN(C)C(=O)n1ccc(-c2ccccc2)n1 [Compound 30, N,N-dimethyl-3-phenyl-1H-pyrazole-1-carboxamide] | – | – | 11% | 23%
CN(C)C(=O)N1CC(C(C)(C)C)OC1=O (stereo not drawn) [Compound 31, 5-tert-butyl-N,N-dimethyl-2-oxooxazolidine-3-carboxamide] | – | – | 66% | 63%
CN(C)C(=O)N1CC(Cc2ccccc2)OC1=O (stereo not drawn) [Compound 32, 5-benzyl-N,N-dimethyl-2-oxooxazolidine-3-carboxamide] | – | – | 3% | 5%
CN(C)C(=O)n1cnc(-c2ccccc2)c1 [Compound 33, N,N-dimethyl-4-phenyl-1H-imidazole-1-carboxamide] | – | – | 6% | 88%
CN(C)C(=O)n1nnc(Cc2ccccc2)n1 [Compound 34, 5-benzyl-N,N-dimethyl-2H-tetrazole-2-carboxamide] | 100% | 91% | – | –
CN(C)C(=O)n1nnnc1Cc1ccccc1 [Compound 35, 5-benzyl-N,N-dimethyl-1H-tetrazole-1-carboxamide] | 41% | 81% | – | –
